Results reported in US9814776B2, “Pharmaceutical preparation comprising aminopyrazole derivative” (Chugai Seiyaku Kabushiki Kaisha, priority 2013, dated 2017).
In brackets after ≈: the same amount, converted by molar mass.

Experiment: Solubility of Compound 1 malate after 24 hours in Dissolution Test Solution 1 of the Japanese Pharmacopoeia with 5% surfactant
Assay type: physicochemical
Settings: thermodynamic from solid
Protocol: The surfactants shown in Table 3 and Dissolution Test Solution 1 of the Japanese Pharmacopoeia were used, and the concentration of each surfactant was adjusted to 5%. Compound 1 malate was sufficiently added thereto, the mixture was stirred, and the solubility after 24 hours was measured.

- solubility at 24 h (pH 1.2, aqueous with cosolvent or surfactant or cyclodextrin, 5% Polyoxyethylene (10) octylphenyl ether): 145 µg/mL (≈ 406 µM)
- solubility at 24 h (pH 1.2, aqueous with cosolvent or surfactant or cyclodextrin, 5% Polysorbate 80): 138 µg/mL (≈ 388 µM)
- solubility at 24 h (pH 1.2, aqueous with cosolvent or surfactant or cyclodextrin, 5% Sodium lauryl sulfate): 136 µg/mL (≈ 383 µM)
- solubility at 24 h (pH 1.2, simulated gastric fluid, no surfactant): 18.5 µg/mL (≈ 51.9 µM)
Compound: Cc1nc2cc(-n3ncc(C(=O)c4cc5ccccc5[nH]4)c3N)ccc2[nH]1 [Compound 1, [5-amino-1-(2-methyl-3H-benzimidazol-5-yl)-1H-pyrazol-4-yl]-(1H-indol-2-yl)-methanone]
